Source: patent US12472272B2, “Radiolabelled compounds for diagnosis or treatment of prostate-specific membrane antigen- expressing cancer” (PROVINCIAL HEALTH SERVICES AUTHORITY, priority 2019, dated 2025)

What was measured:
[1] = system: PSMA-expressing LNCAP cancer xenografts; assay: Biodistribution of ^68Ga-labeled PSMA-targeting tracers; assay type: in vivo, mice
Experimental: (§1) Imaging and biodistribution experiments were performed using NODSCID 1L2RγKO male mice. Mice were anesthetized by inhalation with 2% isoflurane in oxygen, and implanted subcutaneously with 1×10^7 LNCaP cells behind left shoulder. Mice were imaged or used in biodistribution studies when the tumor grew up to reach 5-8 mm in diameter during 5-6 weeks.
(§2) PET imaging experiments were conducted using Siemens Inveon micro PET/CT scanner. Each tumor bearing mouse was injected 6-8 MBq of Ga-68 labeled tracer through the tail vein under anesthesia (2% isoflurane in oxygen). The mice were allowed to recover and roam freely in their cage. After 50 min, the mice were sedated again with 2% isoflurane in oxygen inhalation and positioned in the scanner. A 10-min CT scan was conducted first for localization and attenuation correction after segmentation for reconstructing the PET images. Then, a 10-min static PET imaging was performed to determined uptake in tumor and other organs. The mice were kept warm by a heating pad during acquisition. For imaging studies acquired at 3 h post-injection (p.i.), the mice were placed in the micro PET/CT scanner at 170 min p.i. Then, the CT acquisitions were conducted as described above, a 15-min static PET imaging was performed to determined uptake in tumor and other organs.
For biodistribution studies, the mice were injected with the radiotracer as described above. At predetermined time points (1 or 3 h for ^68Ga studies; 1, 4, 24, 72, or 120 h for ^177Lu studies), the mice was anesthetized with 2% isoflurane inhalation, and euthanized by CO2 inhalation. Blood was withdrawn immediately from the heart, and the organs/tissues of interest were collected. The collected organs/tissues were weighed and counted using a Perkin Elmer (Waltham, MA) Wizard2 2480 gamma counter. The uptake in each organ/tissue was normalized to the injected dose using a standard curve, and expressed as the percentage of the injected dose per gram of tissue (% ID/g).

LNCaP tumors = assay: PET/CT imaging of ^68Ga-labeled tracers; assay type: in vivo, mice; conditions: FIG. 3
Experimental: as §1, §2

`O=C([O-])CN1CCN(CC(=O)[O-])CCN(CC(=O)NC[C@H]2CC[C@H](C(=O)N[C@@H](Cc3ccc4ccc5cccc6ccc3c4c56)C(=O)NCCCC[C@H](NC(=O)N[C@@H](CCC(=O)O)C(=O)O)C(=O)O)CC2)CCN(CC(=O)[O-])CC1.[68Ga+3]` [^68Ga-HTK03029] was tested, and the “Tissue (% ID/g): Adrenal glands” value ([1]; 1 h post-injection) was 4.91 ± 1.57 % ID/g, the “Tissue (% ID/g): Blood” value ([1]; 1 h post-injection) was 3.93 ± 0.91 % ID/g and the “Tissue (% ID/g): Bone” value ([1]; 1 h post-injection) was 0.92 ± 0.14 % ID/g. The “Tissue (% ID/g): Brain” value ([1]; 1 h post-injection) was 0.09 ± 0.02 % ID/g, the “Tissue (% ID/g): Fat” value ([1]; 1 h post-injection) was 1.57 ± 0.42 % ID/g and the “Tissue (% ID/g): Heart” value ([1]; 1 h post-injection) was 1.25 ± 0.27 % ID/g. The “Tissue (% ID/g): Intestine” value ([1]; 1 h post-injection) was 0.77 ± 0.11 % ID/g, the “Tissue (% ID/g): Kidneys” value ([1]; 1 h post-injection) was 198 ± 49.3 % ID/g and the “Tissue (% ID/g): Lacrimal” value ([1]; 1 h post-injection) was 1.06 ± 0.49 % ID/g. The “Tissue (% ID/g): Liver” value ([1]; 1 h post-injection) was 1.32 ± 0.63 % ID/g, the “Tissue (% ID/g): Lungs” value ([1]; 1 h post-injection) was 3.59 ± 0.69 % ID/g and the “Tissue (% ID/g): Muscle” value ([1]; 1 h post-injection) was 0.63 ± 0.10 % ID/g. The “Tissue (% ID/g): Pancreas” value ([1]; 1 h post-injection) was 0.94 ± 0.18 % ID/g, the “Tissue (% ID/g): Salivary” value ([1]; 1 h post-injection) was 3.27 ± 1.02 % ID/g and the “Tissue (% ID/g): Seminal” value ([1]; 1 h post-injection) was 6.74 ± 10.7 % ID/g. For the same compound, the “Tissue (% ID/g): Spleen” value ([1]; 1 h post-injection) was 7.08 ± 5.08 % ID/g, the “Tissue (% ID/g): Stomach” value ([1]; 1 h post-injection) was 0.31 ± 0.08 % ID/g and the “Tissue (% ID/g): Tail” value ([1]; 1 h post-injection) was 2.18 ± 0.65 % ID/g. For the same compound, the “Tissue (% ID/g): Testes” value ([1]; 1 h post-injection) was 1.02 ± 0.13 % ID/g, the “Tissue (% ID/g): Thyroid” value ([1]; 1 h post-injection) was 1.57 ± 0.32 % ID/g and the “Tissue (% ID/g): Tumor” value ([1]; 1 h post-injection) was 13.9 ± 6.58 % ID/g. The “Tissue (% ID/g): Urine” value ([1]; 1 h post-injection) was 175 ± 178 % ID/g, the “tumor-to-background contrast ratio Tumor: Blood” value ([1]; 1 h post-injection) was 3.39 ± 1.01 and the “tumor-to-background contrast ratio Tumor: Muscle” value ([1]; 1 h post-injection) was 21.3 ± 7.50. The “tumor-to-background contrast ratio Tumor: kidney” value ([1]; 1 h post-injection) was 0.07 ± 0.02, the “Tissue (% ID/g): Tumor” value ([1]; 1 h post-injection, listed as 68Ga-labeled HTK03029) was ~13 % ID/g and the “uptake in PET/CT images” value (LNCaP tumors) was “higher uptake was observed in LNCap tumor xenografts, kidneys and urinary bladders”.
For `O=C([O-])CN1CCN(CC(=O)[O-])CCN(CC(=O)NC[C@H]2CC[C@H](C(=O)N[C@@H](Cc3c4ccccc4cc4ccccc34)C(=O)NCCCC[C@H](NC(=O)N[C@@H](CCC(=O)O)C(=O)O)C(=O)O)CC2)CCN(CC(=O)[O-])CC1.[68Ga+3]` [^68Ga-HTK03041], the “Tissue (% ID/g): Adrenal glands” value ([1]; 1 h post-injection) was 8.90 ± 2.56 % ID/g, the “Tissue (% ID/g): Blood” value ([1]; 1 h post-injection) was 1.43 ± 0.30 % ID/g and the “Tissue (% ID/g): Bone” value ([1]; 1 h post-injection) was 1.29 ± 0.45 % ID/g. For the same compound, the “Tissue (% ID/g): Brain” value ([1]; 1 h post-injection) was 0.10 ± 0.05 % ID/g, the “Tissue (% ID/g): Fat” value ([1]; 1 h post-injection) was 2.06 ± 0.59 % ID/g and the “Tissue (% ID/g): Heart” value ([1]; 1 h post-injection) was 1.82 ± 0.21 % ID/g. The “Tissue (% ID/g): Intestine” value ([1]; 1 h post-injection) was 1.14 ± 0.18 % ID/g, the “Tissue (% ID/g): Kidneys” value ([1]; 1 h post-injection) was 170 ± 26.4 % ID/g and the “Tissue (% ID/g): Lacrimal” value ([1]; 1 h post-injection) was 2.44 ± 1.79 % ID/g. The “Tissue (% ID/g): Liver” value ([1]; 1 h post-injection) was 1.38 ± 0.25 % ID/g, the “Tissue (% ID/g): Lungs” value ([1]; 1 h post-injection) was 4.32 ± 0.62 % ID/g and the “Tissue (% ID/g): Muscle” value ([1]; 1 h post-injection) was 0.75 ± 0.09 % ID/g. For the same compound, the “Tissue (% ID/g): Pancreas” value ([1]; 1 h post-injection) was 1.47 ± 0.16 % ID/g, the “Tissue (% ID/g): Salivary” value ([1]; 1 h post-injection) was 4.99 ± 0.88 % ID/g and the “Tissue (% ID/g): Seminal” value ([1]; 1 h post-injection) was 1.03 ± 0.27 % ID/g. For the same compound, the “Tissue (% ID/g): Spleen” value ([1]; 1 h post-injection) was 8.95 ± 3.22 % ID/g, the “Tissue (% ID/g): Stomach” value ([1]; 1 h post-injection) was 0.41 ± 0.11 % ID/g and the “Tissue (% ID/g): Tail” value ([1]; 1 h post-injection) was 1.36 ± 0.45 % ID/g. The “Tissue (% ID/g): Testes” value ([1]; 1 h post-injection) was 1.34 ± 0.22 % ID/g, the “Tissue (% ID/g): Thyroid” value ([1]; 1 h post-injection) was 2.48 ± 0.44 % ID/g and the “Tissue (% ID/g): Tumor” value ([1]; 1 h post-injection) was 23.1±6.11 % ID/g. The “Tissue (% ID/g): Urine” value ([1]; 1 h post-injection) was 173 ± 93.01 % ID/g, the “tumor-to-background contrast ratio Tumor: Blood” value ([1]; 1 h post-injection) was 17.3 ± 7.24 and the “tumor-to-background contrast ratio Tumor: Muscle” value ([1]; 1 h post-injection) was 31.6 ± 12.1. For the same compound, the “tumor-to-background contrast ratio Tumor: kidney” value ([1]; 1 h post-injection) was 0.14 ± 0.04, the “Tissue (% ID/g): Adrenal glands” value ([1]; 3 h post-injection) was 4.04 ± 1.20 % ID/g and the “Tissue (% ID/g): Blood” value ([1]; 3 h post-injection) was 0.83 ± 0.27 % ID/g. The “Tissue (% ID/g): Bone” value ([1]; 3 h post-injection) was 0.98 ± 0.40 % ID/g, the “Tissue (% ID/g): Brain” value ([1]; 3 h post-injection) was 0.06 ± 0.02 % ID/g and the “Tissue (% ID/g): Fat” value ([1]; 3 h post-injection) was 1.06 ± 0.20 % ID/g. The “Tissue (% ID/g): Heart” value ([1]; 3 h post-injection) was 0.93 ± 0.17 % ID/g, the “Tissue (% ID/g): Intestine” value ([1]; 3 h post-injection) was 0.67 ± 0.09 % ID/g and the “Tissue (% ID/g): Kidneys” value ([1]; 3 h post-injection) was 121 ± 37.6 % ID/g. The “Tissue (% ID/g): Lacrimal” value ([1]; 3 h post-injection) was 2.82 ± 3.84 % ID/g, the “Tissue (% ID/g): Liver” value ([1]; 3 h post-injection) was 0.82 ± 0.15 % ID/g and the “Tissue (% ID/g): Lungs” value ([1]; 3 h post-injection) was 2.14 ± 0.39 % ID/g. The “Tissue (% ID/g): Muscle” value ([1]; 3 h post-injection) was 0.40 ± 0.06 % ID/g, the “Tissue (% ID/g): Pancreas” value ([1]; 3 h post-injection) was 0.71 ± 0.12 % ID/g and the “Tissue (% ID/g): Salivary” value ([1]; 3 h post-injection) was 2.11 ± 0.57 % ID/g. The “Tissue (% ID/g): Seminal” value ([1]; 3 h post-injection) was 4.56 ± 9.00 % ID/g, the “Tissue (% ID/g): Spleen” value ([1]; 3 h post-injection) was 4.19 ± 1.58 % ID/g and the “Tissue (% ID/g): Stomach” value ([1]; 3 h post-injection) was 0.26 ± 0.06 % ID/g. For the same compound, the “Tissue (% ID/g): Tail” value ([1]; 3 h post-injection) was 0.86 ± 0.73 % ID/g, the “Tissue (% ID/g): Testes” value ([1]; 3 h post-injection) was 0.89 ± 0.12 % ID/g and the “Tissue (% ID/g): Thyroid” value ([1]; 3 h post-injection) was 1.19 ± 0.23 % ID/g. For the same compound, the “Tissue (% ID/g): Tumor” value ([1]; 3 h post-injection) was 28.2±9.17 % ID/g, the “Tissue (% ID/g): Urine” value ([1]; 3 h post-injection) was 171 ± 93.3 % ID/g and the “tumor-to-background contrast ratio Tumor: Blood” value ([1]; 3 h post-injection) was 36.6 ± 15.4. For the same compound, the “tumor-to-background contrast ratio Tumor: Muscle” value ([1]; 3 h post-injection) was 73.8 ± 30.9, the “tumor-to-background contrast ratio Tumor: kidney” value ([1]; 3 h post-injection) was 0.26 ± 0.13 and the “uptake in PET/CT images” value (LNCaP tumors) was “higher uptake was observed in LNCap tumor xenografts, kidneys and urinary bladders”.
